From patent publication US20250205268A1, “TREATMENT OF VIRUSES WITH ANTIVIRAL NUCLEOSIDES” (priority 2021, published 2025)
Entries after “also recorded” stand apart in the source; their conditions may differ. Where two headings read alike, the source gives them in different places.

Columns and labels:
[1] = format: in vivo; conditions: nonclinical studies
SARS-CoV-2 [2] = format: in vivo
[3] = format: in vivo, human; conditions: adults; age, sex, body size, food, mild-to-moderate renal or mild hepatic impairment
Description: A population pharmacokinetic (popPK) analysis for Compound A exposure was conducted using 4202 NHC plasma concentrations collected in 1207 individuals from a phase 1 study in healthy participants, a phase 2a study in non-hospitalized participants with COVID-19, a Phase 2 study in hospitalized participants with COVID-19, and a Phase 2/3 study in non-hospitalized participants with COVID-19. All studies were randomized, double-blind, placebo-controlled studies of safety, tolerability, and PK of Compound A after oral administration.

SARS-CoV-2 [4] = test system: SARS-CoV-2
SARS-CoV-2 [5] = test system: SARS-CoV-2; remark: listed apart in the source
[6] = Part 2 interim analysis, MITT, 800 mg twice daily 5 days
[7] = Part 2 interim analysis, versus placebo
[8] = Part 2 interim, post-hoc sensitivity analysis, MITT
[9] = Part 2 interim, safety population

SMILES: CC(C)C(=O)OC[C@H]1O[C@@H](n2ccc(NO)nc2=O)[C@H](O)[C@@H]1O [Compound A, {(2R,3S,4R,5R)-3,4-dihydroxy-5-[4-(hydroxyimino)-2-oxo-3,4-dihydropyrimidin-1 (2H)-yl]oxolan-2-yl}methyl 2-methylpropanoate]
- pancreatic toxicity (pathology changes in the pancreas) [1]: No test-article related pathology changes in the pancreas
- deaths through Day 29 (SARS-CoV-2 [2]; Part 2 interim analysis): No participants in the Compound A group died; also recorded: No deaths were reported
- relative reduction in the percentage of participants hospitalized or died through Day 29 (SARS-CoV-2 [2]; Part 2 interim analysis): ~50%
- treatment difference (Compound A minus placebo) in hospitalization or death at day 29 (SARS-CoV-2 [2]; Part 2 interim analysis (28 of 385 vs 53 of 377), MITT): −6.8 percentage points
- hazard ratio for hospitalization/death through Day 29 (SARS-CoV-2 [2]; Part 2 interim analysis, MITT): 0.51
- reduction in the risk of hospitalization/death through Day 29 (time-to-event analysis) (SARS-CoV-2 [2]; Part 2 interim analysis, MITT): ~50%
- participants hospitalized or died through Day 29 (SARS-CoV-2 [2]; [6]): 7.3%
- reduction in the risk of hospitalization or death through Day 29 compared with placebo (SARS-CoV-2 [2]; [6]): 6.8 percentage point
- participants hospitalized or died through Day 29 (SARS-CoV-2 [2]; Part 2 interim analysis, subgroup positive for SARS-CoV-2 antibodies at baseline): 2.9%
- progression of COVID-19 signs/symptoms (SARS-CoV-2 [2]; [7]): lower percentage of participants in the Compound A than the placebo group reported progression
- sustained improvement/resolution of self-reported COVID-19 signs/symptoms (SARS-CoV-2 [2]; [7]): higher percentage of participants in the Compound A group achieved earlier sustained improvement/resolution
- COVID-19-related hospitalizations and/or deaths through Day 29, n (%) (SARS-CoV-2 [2]; [8]): 25 (6.5) n (%)
- Unadjusted difference vs placebo in COVID-19-related hospitalizations and/or deaths (SARS-CoV-2 [2]; [8]): −6.8
- Adjusted difference in rates % (95% CI) vs placebo in COVID-19-related hospitalizations and/or deaths (SARS-CoV-2 [2]; Part 2 interim, post-hoc sensitivity analysis, MITT, Miettinen & Nurminen): −6.8 (−11.1, −2.6) %
- Covid-19 signs and symptoms versus placebo (SARS-CoV-2 [2]; final): sustained abatement or resolution was more likely
- deaths reported through day 29 (SARS-CoV-2 [2]; final): One
- 29-day all-cause mortality (SARS-CoV-2 [2]; final all-randomized MITT): 0.1%
- difference vs placebo in hospitalization or death through day 29 (SARS-CoV-2 [2]; final all-randomized MITT): −3.0 percentage points
- hazard ratio for hospitalization or death through day 29 (SARS-CoV-2 [2]; final all-randomized MITT): 0.69
- rate of hospitalization or death through day 29 lower than placebo (time-to-event analysis) (SARS-CoV-2 [2]; final all-randomized MITT): approximately 31%
- participants hospitalized or died through day 29 (SARS-CoV-2 [2]; final all-randomized MITT (48 of 709), 800 mg twice daily 5 days): 6.8%
- risk of hospitalization or death through day 29 lower than placebo, adjusted for participant sex (SARS-CoV-2 [2]; final, post hoc analysis): 2.8 percentage points
- difference vs placebo in Covid-19-related hospitalizations or deaths (SARS-CoV-2 [2]; final, prespecified supporting analysis): −2.8 percentage points
- participants with Covid-19-related hospitalizations or deaths (SARS-CoV-2 [2]; final, prespecified supporting analysis (45 of 709)): 6.3%
- risk of death lower than with placebo (SARS-CoV-2 [2]; final, through day 29): 89%
- need for dose adjustment [3]: without dose adjustment
- tolerability (SARS-CoV-2 [4]; 5-day course up to 800 mg twice daily): well tolerated
- Median time to sustained recovery (SARS-CoV-2 [4]; all arms, hospitalized): 9 days
- day 29 recovery rates (SARS-CoV-2 [4]; all arms, hospitalized): 81.5%-85.2%
- hematologic toxicity based on prespecified adverse events (SARS-CoV-2 [4]; all doses): no evidence of hematologic toxicity
- clinical benefit (SARS-CoV-2 [4]; hospitalized patients with COVID-19): clinical benefit was not observed
- participants with undetectable SARS-CoV-2 RNA at day 10, more than placebo (SARS-CoV-2 [4]; participants with ≤5 days since sign/symptom onset): 14.3%-36.4%
- number of doses sufficient to demonstrate efficacy (H1N1; administered every 12 hours, ferret model of influenza): Three
- dose demonstrating efficacy against H1N1 (H1N1; ferrets): 7 mg/kg BID
- hematological, pancreatic, or hepatic parameters (SARS-CoV-2 [5]; Part 1, as a function of dose or treatment): no clinically meaningful abnormalities
- dose-limiting toxicity (SARS-CoV-2 [5]; highest dose (800 mg), eDMC review of IA2 data): no dose-limiting toxicity was observed
- SARS-CoV-2 VL compared with placebo (SARS-CoV-2 [5]; in vivo): reduces the SARS-CoV-2 VL compared with placebo
- tolerability (SARS-CoV-2 [5]; non-hospitalized participants in Part 1): well-tolerated
- AE: COVID-19 pneumonia (Part 2 interim): 4.9%
- AE: bacterial pneumonia (Part 2 interim): 2.1%
- AE: worsening COVID-19 (Part 2 interim): 8.0%
- tolerability (Part 2 interim analysis): well-tolerated
- Died [9]: (0.0) %
- Estimated difference vs placebo: Died [9]: −2.6%
- adverse event: Covid-19 pneumonia (final): 6.3%
- adverse event: bacterial pneumonia (final): 2.0%
- adverse event: worsening of Covid-19 (final): 7.9%
- Death (final, safety population): 2 (0.3) number (percent)
- Estimated Difference (95% CI) vs placebo: Death (final, safety population): −1.4 (−2.7 to −0.5) percentage points
- AE: diarrhea (human, in vivo): 3.9%
- AE: nausea (human, in vivo): 2.8%
- AE: respiratory failure (human, in vivo): 1.0%
- At least 1 serious AE (human, in vivo): (7.3) %
- At least 1 serious drug-related AE (human, in vivo): (0.0) %
- Discontinued the assigned regimen because of a serious adverse event (human, in vivo): 5 (0.7) number (percent)
- Discontinued the assigned regimen because of a serious adverse event related to the assigned regimen (human, in vivo): 0 number (percent)
- Discontinued the assigned regimen because of an adverse event (human, in vivo): 10 (1.4) number (percent)
- Discontinued the assigned regimen because of an adverse event related to the assigned regimen (human, in vivo): 4 (0.6) number (percent)
- Discontinued treatment due to a drug-related AE (human, in vivo): (0.8) %
- Discontinued treatment due to a serious AE (human, in vivo): (0.3) %
- Discontinued treatment due to a serious drug-related AE (human, in vivo): (0.0) %
- Discontinued treatment due to an AE (human, in vivo): (1.3) %
- Estimated Difference (95% CI) vs placebo: discontinued because of a serious adverse event (human, in vivo): −1.2 (−2.5 to 0.0) percentage points
- Estimated Difference (95% CI) vs placebo: discontinued because of a serious adverse event related to the assigned regimen (human, in vivo): 0.0 (−0.5 to 0.5) percentage points
- Estimated Difference (95% CI) vs placebo: discontinued because of an adverse event (human, in vivo): −1.4 (−3.1 to 0.1) percentage points
- Estimated Difference (95% CI) vs placebo: discontinued because of an adverse event related to the assigned regimen (human, in vivo): 0.1 (−0.8 to 1.1) percentage points
- Estimated Difference (95% CI) vs placebo: ≥1 Adverse event (human, in vivo): −2.5 (−7.4 to 2.3) percentage points
- Estimated Difference (95% CI) vs placebo: ≥1 Adverse event related to the assigned regimen (human, in vivo): −0.4 (−3.3 to 2.5) percentage points
- Estimated Difference (95% CI) vs placebo: ≥1 Serious adverse event (human, in vivo): −2.7 (−5.6 to 0.2) percentage points
- Estimated Difference (95% CI) vs placebo: ≥1 Serious adverse event related to the assigned regimen (human, in vivo): −0.1 (−0.8 to 0.4) percentage points
- Estimated difference vs placebo: At least 1 AE (human, in vivo): −4.6%
- Estimated difference vs placebo: At least 1 drug-related AE (human, in vivo): 1.4%
- Estimated difference vs placebo: At least 1 serious AE (human, in vivo): −6.7%
- Estimated difference vs placebo: At least 1 serious drug-related AE (human, in vivo): 0.0%
- Estimated difference vs placebo: Discontinued treatment due to a drug-related AE (human, in vivo): −0.0%
- Estimated difference vs placebo: Discontinued treatment due to a serious AE (human, in vivo): −2.1%
- Estimated difference vs placebo: Discontinued treatment due to a serious drug-related AE (human, in vivo): 0.0%
- Estimated difference vs placebo: Discontinued treatment due to an AE (human, in vivo): −2.1%
- adverse event related to the trial regimen: diarrhea (human, in vivo): 1.7%
- adverse event related to the trial regimen: dizziness (human, in vivo): 1.0%
- adverse event related to the trial regimen: nausea (human, in vivo): 1.4%
- adverse event: diarrhea (human, in vivo): 2.3%
- drug-related AE: diarrhea (human, in vivo): 3.1%
- drug-related AE: nausea (human, in vivo): 2.3%
- participants with adverse events considered related to the trial regimen (human, in vivo): 8.0%
- ≥1 Adverse event (human, in vivo): 216 (30.4) number (percent)
- ≥1 Adverse event related to the assigned regimen (human, in vivo): 57 (8.0) number (percent)
- ≥1 Serious adverse event (human, in vivo): 49 (6.9) number (percent)
- ≥1 Serious adverse event related to the assigned regimen (human, in vivo): 0 number (percent)
- hematological laboratory tests (in vivo): no clinically significant abnormalities
- liver parameters (in vivo): No clinically significant abnormalities in liver parameters
- participants meeting prespecified criteria for platelets <50,000/μL or potential drug-induced liver injury (in vivo): No participants in the Compound A group met prespecified criteria
- participants meeting prespecified criteria for postbaseline platelet count below 50,000 per microliter (in vivo): One participant
